Laboratory results taken from patent publication US9290496B2, “Purine derivatives” (PFIZER INC., priority 2013, dated 2016).

Columns and labels:
[1] = molecular target: T1, EGFR wildtype, endogenous (A549) (Homo sapiens, UniProt P00533); test: pEGFR Y1068 ELISA assay, A549 cells; format: cell-based; settings: inhibition of phosphorylation of EGFR at Tyr1068; A549 NSCLC cells; 2 hr compound incubation, then stimulated 10 min with EGF (40 ng/mL)
T1 construct: A549 (EGFR wildtype, endogenous); host or cells: A549 (stimulated with EGF)
Method: (§1) Phosphorylation of EGFR at Y1068 was measured by PathScan® Phospho-EGF Receptor (Try1068) Sandwich ELISA kit (#7240, Cell Signaling Technology®, Danvers, Mass.). The PathScan® Phospho-EGF Receptor (Tyr1068) Sandwich ELISA Kit is a solid phase sandwich enzyme-linked immunosorbent assay (ELISA) that detects endogenous levels of phospho-EGF Receptor (Tyr1068) protein. […] All cells were cultured according to ATCC recommendations. A549, NCI-H1975, PC9, and NCI-H3255 cells were grown in RPMI media (Invitrogen, Carlsbad, Calif.) supplemented with 10% FBS (Sigma, St Louis, Mo.), and with 1% Penn/Strep (Invitrogen). PC9-DRH cells were grown in RPMI with 10% FBS and 1 μM dacomitinib.
(§2) Cells were plated at 40,000/well in complete culture media (50 μL/well) on the bottom of clear tissue culture treated microtiter plates (#3595, Corning Inc, Corning, N.Y.) and allowed to adhere overnight at 37° C., 5% CO2. The following day, compound dilution plates were prepared in 96 well clear V-bottom 0.5 mL polypropylene block plates (#3956, Corning, Inc). Each compound was prepared as a DMSO stock solution (10 mM). Compounds were tested in duplicate on each plate, with an 11-point serial dilution curve (1:3 dilution). Compound treatment (50 μL) was added from the compound dilution plate to the cell plate. […] Plates were then incubated for 2 hr at 37° C., 5% CO2. For A549 (EGFR wildtype) assay, cells were plated in full-serum (10%) media for 24 hr prior to compound treatment; cells were treated in full serum media as described and then stimulated for 10 min with EGF (40 ng/mL/starvation media, Invitrogen). Immediately prior to the end of the incubation, ice-cold lysis buffer was prepared (1× Cell Lysis Buffer (#9803, Cell Signaling Technology), 1 mM sodium orthovanadate (Na3VO4, #96508, Sigma), 1 mM phenylmethanesulfonyl fluoride (PMSF, 52332, CalBiochem/EMD Chemicals), complete Mini EDTA-free Protease Inhibitor Cocktail Tablet (1 tablet/10 mL, #11836170001, Roche, Indianapolis, Ind.), and PhosSTOP Phosphatase Inhibitor Cocktail Tablet (1 tablet/10 mL, #04906837001, Roche) in pure water. At the end of 2 hr, media was flicked off and cells were washed once with ice-cold 1 mM Na3VO4 in PBS (100 μL/well, Invitrogen). The wash was then flicked off and ice-cold lysis buffer was added to the cells (50 μL/well). The plate was shaken for 20-30 min at 4° C. to completely lyse the cells. Sample diluent (50 μL/well) was added to the ELISA plate, and the lysate (50 μL) was diluted into the sample diluent in each well of the ELISA plate. Plates were sealed and incubated overnight at 4° C. with shaking. The next day, wells were washed four times with 1× Wash Buffer; plates were taped on lint-free paper after the final wash prior to adding Add Detection Antibody (green, 100 μL/well) to each well and incubating for 1 hr at 37° C. After incubation, wells were washed as described. HRP-Linked secondary antibody (red, 100 μL/well) was added to each well and incubated for 30 min at 37° C. After incubation, the wells were washed as described. TMB Substrate (100 μL/well) was added to each well and the plate incubated for 10 min at 37° C. or 30 min at rt maximum. Stop Solution (100 μL/well) was added to each well at the end of the incubation and plates were shaken gently for a few seconds. Absorbance was read at 450 nm within 30 min after addition of Stop Solution on a PerkinElmer EnVision Excite Multilabel Reader Method for Absorbance or on a Molecular Devices SpectraMax^384 Reader for absorbance. Data were analyzed using a four-parameter fit in Microsoft Excel.

[2] = molecular target: T2, EGFR L858R+T790M, endogenous (NCI-H1975) (Homo sapiens, UniProt P00533, L858R/T790M); test: pEGFR Y1068 ELISA assay, NCI-H1975 cells; format: cell-based; settings: inhibition of phosphorylation of EGFR at Tyr1068; NCI-H1975 NSCLC cells; 2 hr compound incubation
T2 construct: NCI-H1975 (EGFR L858R+T790M, endogenous); host or cells: NCI-H1975
T2 sequence (P00533 25-1210 T790M/L858R): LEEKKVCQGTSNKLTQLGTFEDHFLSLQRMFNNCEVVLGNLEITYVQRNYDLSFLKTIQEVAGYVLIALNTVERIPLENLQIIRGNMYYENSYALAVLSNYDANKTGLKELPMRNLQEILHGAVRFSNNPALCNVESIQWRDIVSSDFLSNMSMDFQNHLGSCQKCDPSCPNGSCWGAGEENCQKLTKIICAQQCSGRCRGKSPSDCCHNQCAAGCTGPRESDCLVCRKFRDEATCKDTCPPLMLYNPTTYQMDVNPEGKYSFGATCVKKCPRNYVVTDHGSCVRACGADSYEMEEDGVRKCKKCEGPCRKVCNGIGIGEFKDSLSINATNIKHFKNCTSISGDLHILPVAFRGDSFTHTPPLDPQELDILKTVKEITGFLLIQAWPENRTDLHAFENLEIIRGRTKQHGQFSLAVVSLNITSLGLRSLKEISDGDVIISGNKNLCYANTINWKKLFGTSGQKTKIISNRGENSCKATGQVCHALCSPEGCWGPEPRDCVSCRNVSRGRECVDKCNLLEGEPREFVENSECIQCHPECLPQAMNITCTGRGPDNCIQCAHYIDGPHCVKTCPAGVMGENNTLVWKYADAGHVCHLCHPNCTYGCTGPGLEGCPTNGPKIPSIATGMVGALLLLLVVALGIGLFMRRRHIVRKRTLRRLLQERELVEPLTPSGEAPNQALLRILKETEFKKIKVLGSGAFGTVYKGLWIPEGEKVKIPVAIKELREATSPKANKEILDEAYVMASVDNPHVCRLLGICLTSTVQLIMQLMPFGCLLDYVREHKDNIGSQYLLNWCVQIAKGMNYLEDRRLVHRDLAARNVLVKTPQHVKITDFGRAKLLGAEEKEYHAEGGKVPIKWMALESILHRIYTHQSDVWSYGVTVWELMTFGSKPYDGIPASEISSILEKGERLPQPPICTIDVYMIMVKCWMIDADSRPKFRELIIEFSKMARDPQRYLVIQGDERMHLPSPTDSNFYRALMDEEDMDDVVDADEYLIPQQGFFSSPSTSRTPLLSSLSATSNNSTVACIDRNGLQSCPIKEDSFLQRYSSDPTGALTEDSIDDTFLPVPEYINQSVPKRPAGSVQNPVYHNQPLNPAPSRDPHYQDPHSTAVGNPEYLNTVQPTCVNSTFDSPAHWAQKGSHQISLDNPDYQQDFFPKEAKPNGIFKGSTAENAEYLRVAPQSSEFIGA
Method: as §1, §2

T1 sequence (P00533 25-1210): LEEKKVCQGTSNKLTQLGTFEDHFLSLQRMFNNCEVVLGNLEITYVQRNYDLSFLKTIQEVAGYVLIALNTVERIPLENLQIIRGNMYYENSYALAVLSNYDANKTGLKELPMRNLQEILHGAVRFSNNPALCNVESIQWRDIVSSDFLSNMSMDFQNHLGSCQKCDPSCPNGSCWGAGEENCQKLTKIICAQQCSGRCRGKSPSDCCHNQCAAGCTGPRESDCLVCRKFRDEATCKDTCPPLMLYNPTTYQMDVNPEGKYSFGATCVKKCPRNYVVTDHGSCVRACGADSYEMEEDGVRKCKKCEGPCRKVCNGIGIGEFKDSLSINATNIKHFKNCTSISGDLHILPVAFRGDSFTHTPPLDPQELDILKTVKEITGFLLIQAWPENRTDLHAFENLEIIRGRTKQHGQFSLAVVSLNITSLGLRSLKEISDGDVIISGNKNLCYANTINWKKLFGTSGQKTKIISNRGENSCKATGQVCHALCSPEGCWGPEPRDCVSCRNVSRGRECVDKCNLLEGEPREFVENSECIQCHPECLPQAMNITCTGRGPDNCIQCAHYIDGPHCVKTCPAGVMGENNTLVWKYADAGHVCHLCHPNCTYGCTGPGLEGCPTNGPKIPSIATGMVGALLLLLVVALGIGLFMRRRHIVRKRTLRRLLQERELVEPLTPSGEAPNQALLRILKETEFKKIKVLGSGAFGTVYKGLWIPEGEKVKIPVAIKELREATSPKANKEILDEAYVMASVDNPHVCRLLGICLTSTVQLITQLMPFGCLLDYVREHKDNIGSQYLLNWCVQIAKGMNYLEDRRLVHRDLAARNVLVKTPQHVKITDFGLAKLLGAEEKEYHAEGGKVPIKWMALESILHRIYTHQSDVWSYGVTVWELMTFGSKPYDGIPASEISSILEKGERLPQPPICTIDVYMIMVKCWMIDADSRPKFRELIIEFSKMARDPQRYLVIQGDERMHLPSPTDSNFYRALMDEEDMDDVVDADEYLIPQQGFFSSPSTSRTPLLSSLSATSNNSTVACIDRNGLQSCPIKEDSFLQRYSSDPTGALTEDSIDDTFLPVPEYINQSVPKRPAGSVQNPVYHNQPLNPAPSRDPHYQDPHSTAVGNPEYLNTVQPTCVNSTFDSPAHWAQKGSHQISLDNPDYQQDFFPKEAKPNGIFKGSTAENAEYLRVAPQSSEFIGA

Work on C=CC(=O)N1C[C@H](Nc2nc(Nc3cnn(C)c3)c3ncn(C(C)C)c3n2)[C@@H](F)C1 (single isomer, unassigned) [Example 30, 1-((trans*)-3-fluoro-4-((9-isopropyl-6-((1-methyl-1H-pyrazol-4-yl)amino)-9H-purin-2-yl)amino)pyrrolidin-1-yl)prop-2-en-1-one] yielded an IC50 [1] of 3850 nM and an IC50 [2] of 82 nM.
C=CC(=O)N[C@@H]1CN(c2nc(Nc3cnn(C4CCN(C)CC4)c3)c3ncn(C(C)(C)C)c3n2)C[C@H]1F [Example 70, N-((3R,4R)-1-(9-(tert-butyl)-6-((1-(1-methylpiperidin-4-yl)-1H-pyrazol-4-yl)amino) -9H-purin-2-yl)-4-fluoropyrrolidin-3-yl)acrylamide] was tested, and the IC50 [1] was 609 nM and the IC50 [2] was 29 nM.
For C=CC(=O)N(C)[C@H]1C[C@H](Nc2nc(Nc3ccc(N4CCN(C)CC4)cc3)c3ncn(C(C)C)c3n2)C1 [Example 28, N-((trans)-3-((9-isopropyl-6-((4-(4-methylpiperazin-1-yl)phenyl)amino)-9H-purin-2-yl)amino)cyclobutyl)-N-methylacrylamide], the IC50 [1] was 723 nM and the IC50 [2] was 48 nM.
C=CC(=O)N(C)C1CN(c2nc(Nc3ccc(N4CCN(C)CC4)cc3)c3ncn(C(C)C)c3n2)C1 [Example 24, N-(1-(9-isopropyl-6-((4-(4-methylpiperazin-1-yl)phenyl)amino)-9H-purin-2-yl)azetidin-3-yl)-N-methylacrylamide] showed an IC50 [1] of 1140 nM and an IC50 [2] of 39 nM.
For C=CC(=O)N[C@@H]1CN(c2nc(Nc3cn(CC(C)O)nc3OC)c3ncn(CC)c3n2)C[C@H]1F (stereo partly drawn) [Example 86, N-((3R,4R)-1-(9-ethyl-6-((1-(2-hydroxypropyl)-3-methoxy-1H-pyrazol-4-yl)amino) -9H-purin-2-yl)-4-fluoropyrrolidin-3-yl)acrylamide], the IC50 [1] was 1220 nM and the IC50 [2] was 32 nM.
C=CC(=O)N[C@@H]1CN(c2nc(Nc3ccc(N4CCN(C)CC4)cc3)c3ncn(C(C)C)c3n2)C[C@H]1OC (relative stereo) [Example 47, N-((trans)-1-(9-isopropyl-6-((4-(4-methylpiperazin-1-yl)phenyl)amino)-9H-purin-2-yl)-4-methoxypyrrolidin-3-yl)acrylamide] was tested, and the IC50 [2] was 14 nM.
For C=CC(=O)N[C@H]1CCN(c2nc(Nc3ccc(N4CCN(C)CC4)cc3)c3ncn(CC)c3n2)C1 [Example 35, (S)-N-(1-(9-ethyl-6-((4-(4-methylpiperazin-1-yl)phenyl)amino)-9H-purin-2-yl)pyrrolidin-3-yl)acrylamide], the IC50 [1] was 95 nM and the IC50 [2] was 11 nM.
In the case of C=CC(=O)N1C[C@H](Nc2nc(Nc3cnn(C)c3)c3ncn(C(C)C)c3n2)[C@@H](F)C1 (relative stereo) [Example 58, 1-((trans)-3-fluoro-4-((9-isopropyl-6-((1-methyl-1H-pyrazol-4-yl)amino)-9H-purin-2-yl)amino)pyrrolidin-1-yl)prop-2-en-1-one], the IC50 [1] is reported as 983 nM and the IC50 [2] is reported as 58 nM.
For C=CC(=O)N1CC[C@@H](Nc2nc(Nc3ccc(N4CCN(C)CC4)cc3)c3ncn(C(C)C)c3n2)C1 [Example 27, (R)-1-(3-((9-isopropyl-6-((4-(4-methylpiperazin-1-yl)phenyl)amino)-9H-purin-2-yl)amino)pyrrolidin-1-yl)prop-2-en-1-one], the IC50 [1] was 387 nM and the IC50 [2] was 29 nM.
In the case of C=CC(=O)N1CC[C@@H](Oc2nc(Nc3ccc(N4CCN(C)CC4)cc3)c3ncn(C(C)C)c3n2)C1 [Example 26, (R)-1-(3-((9-isopropyl-6-((4-(4-methylpiperazin-1-yl)phenyl)amino)-9H-purin-2-yl)oxy)pyrrolidin-1-yl)prop-2-en-1-one], the IC50 [1] is reported as 682 nM and the IC50 [2] is reported as 25 nM.
Molecule C=CC(=O)N[C@H]1CCN(c2nc(Nc3cn(C)nc3C)c3ncn(C(C)C)c3n2)C1 [Example 37, (S)-N-(1-(6-((1,3-dimethyl-1H-pyrazol-4-yl)amino)-9-isopropyl-9H-purin-2-yl)pyrrolidin-3-yl)acrylamide] has an IC50 [1] of 7610 nM and an IC50 [2] of 391 nM.
C=CC(=O)N1CC(C)(Nc2nc(Nc3cnn(C)c3)c3ncn(C(C)C)c3n2)C1 [Example 32, 1-(3-((9-isopropyl-6-((1-methyl-1H-pyrazol-4-yl)amino)-9H-purin-2-yl)amino)-3-methylazetidin-1-yl)prop-2-en-1-one] showed an IC50 [1] of 1230 nM and an IC50 [2] of 65 nM.
C=CC(=O)N[C@H]1CCN(c2nc(Nc3ccc(N4CCN(C)CC4)cc3)c3ncn(C(C)CO)c3n2)C1 (stereo partly drawn) [Example 48, N-((3S)-1-(9-(1-hydroxypropan-2-yl)-6-((4-(4-methylpiperazin-1-yl)phenyl)amino) -9H-purin-2-yl)pyrrolidin-3-yl)acrylamide] gave an IC50 [1] of 4360 nM and an IC50 [2] of 204 nM.
With C=CC(=O)N(C)C1CN(c2nc(Nc3cnn(C)c3)c3ncn(C(C)C)c3n2)C1 [Example 31, N-(1-(9-isopropyl-6((1-methyl-1H-pyrazol-4-yl)amino)-9H-purin-2-yl)azetidin-3-yl)-N-methylacrylamide] the IC50 [1] was 1350 nM and the IC50 [2] was 76 nM.
Work on C=CC(=O)N1CCCC(c2nc(Nc3cnn(C)c3)c3ncn(C(C)C)c3n2)C1 (single isomer, unassigned) [Example 6, 1-(3-(9-isopropyl-6-((1-methyl-1H-pyrazol-4-yl)amino)-9H-purin-2-yl)piperidin-1-yl)prop-2-en-1-one] yielded an IC50 [1] of no less than 10000 nM and an IC50 [2] of 1040 nM.
Work on C=CC(=O)NC1(C)CCN(c2nc(Nc3ccc(N4CCN(C)CC4)cc3)c3ncn(C(C)C)c3n2)C1 (stereo not shown) [Example 10, N-(1-(9-isopropyl-6-((4-(4-methylpiperazin-1-yl)phenyl)amino)-9H-purin-2-yl)-3-methylpyrrolidin-3-yl)acrylamide] yielded an IC50 [1] of no less than 10000 nM and an IC50 [2] of 846 nM.
Work on C=CC(=O)N[C@H]1CCN(c2nc(Nc3cn(C)nc3OC)c3ncn(C(C)C)c3n2)C1 [Example 11, (S)-N-(1-(9-isopropyl-6-((3-methoxy-1-methyl-1H-pyrazol-4-yl)amino)-9H-purin-2-yl)pyrrolidin-3-yl)acrylamide] yielded an IC50 [1] of 2840 nM and an IC50 [2] of 162 nM.
For C=CC(=O)N[C@@H]1CN(c2nc(Nc3cnn(CCN(C)C)c3)c3ncn(C(C)(C)C)c3n2)C[C@H]1F [Example 68, N-((3R,4R)-1-(9-(tert-butyl)-6-((1-(2-(dimethylamino)ethyl)-1H-pyrazol-4-yl)amino)-9H-purin-2-yl)-4-fluoropyrrolidin-3-yl)acrylamide], the IC50 [1] was 707 nM and the IC50 [2] was 18 nM.
For C=CC(=O)N1CCC(Oc2nc(Nc3cnn(C)c3)c3ncn(C(C)C)c3n2)C1 (stereo in doubt) [Example 59, (R)-1-(3((9-isopropyl-6-((1-methyl-1H-pyrazol-4-yl)amino)-9H-purin-2-yl)oxy)pyrrolidin-1-yl)prop-2-en-1-one], the IC50 [1] was 4050 nM and the IC50 [2] was 162 nM.
C=CC(=O)N[C@H]1CN(c2nc(Nc3cnn(CCN(C)C)c3)c3ncn(C(C)C)c3n2)C[C@@H]1F [Example 67, N-((3S,4S)-1-(6-((1-(2-(dimethylamino)ethyl)-1H-pyrazol-4-yl)amino)-9-isopropyl-9H-purin-2-yl)-4-fluoropyrrolidin-3-yl)acrylamide] showed an IC50 [1] of 90 nM and an IC50 [2] of 8 nM.
For C=CC(=O)N[C@H]1CCN(c2nc(Nc3ccc(N4CCN(C)CC4)cc3)c3ncn(C4CCC4)c3n2)C1 [Example 15], the IC50 [1] was 117 nM and the IC50 [2] was 55 nM.
Work on C=CC(=O)N[C@H]1C[C@H](Oc2nc(Nc3ccc(N4CCN(C)CC4)cc3)c3ncn(C(C)C)c3n2)C1 [Example 14, N-((trans)-3-((9-isopropyl-6-((4-(4-methylpiperazin-1-yl)phenyl)amino)-9H-purin-2-yl)oxy)cyclobutyl)acrylamide] yielded an IC50 [1] of no less than 10000 nM and an IC50 [2] of 285 nM.
With C=CC(=O)NC1CN(c2nc(Nc3ccc(N4CCN(C)CC4)cc3)c3ncn(C(C)C)c3n2)C1 [Example 23, N-(1-(9-isopropyl-6-((4-(4-methylpiperazin-1-yl)phenyl)amino)-9H-purin-2-yl)azetidin-3-yl)acrylamide] the IC50 [1] was 1420 nM and the IC50 [2] was 39 nM.
For C=CC(=O)N[C@H]1CCN(c2nc(Nc3cnn(C)c3)c3ncn(C4(C)CC4)c3n2)C1 [Example 60, (S)-N-(1-(6-((1-methyl-1H-pyrazol-4-yl)amino)-9-(1-methylcyclopropyl)-9H-purin-2-yl)pyrrolidin-3-yl)acrylamide], the IC50 [1] was 1390 nM and the IC50 [2] was 317 nM.
Molecule C=CC(=O)N[C@@H]1CN(c2nc(Nc3cnn(C4CCN(C)CC4)c3)c3ncn(C(C)C)c3n2)C[C@H]1F [Example 71, N-((3R,4R)-4-fluoro-1-(9-isopropyl-6-((1-(1-methylpiperidin-4-yl)-1H-pyrazol-4-yl)amino)-9H-purin-2-yl)pyrrolidin-3-yl)acrylamide] has an IC50 [1] of 167 nM and an IC50 [2] of 20 nM.
Work on C=CC(=O)N[C@@H]1CN(c2nc(Nc3cn(CC(C)O)nc3OC)c3ncn(C)c3n2)C[C@H]1F (stereo partly drawn) [Example 83, N-((3R,4R)-4-fluoro-1-(6-((1-(2-hydroxypropyl)-3-methoxy-1H-pyrazol-4-yl)amino)-9-methyl-9H-purin-2-yl)pyrrolidin-3-yl)acrylamide] yielded an IC50 [1] of 3450 nM and an IC50 [2] of 132 nM.
Molecule C=CC(=O)N1C[C@@H]2CN(c3nc(Nc4cnn(C)c4)c4ncn(C(C)C)c4n3)C[C@]2(F)C1 (relative stereo) [Example 73, 1-(cis-3a-fluoro-5-(9-isopropyl-6-((1-methyl-1H-pyrazol-4-yl)amino)-9H-purin-2-yl)hexahydropyrrolo[3,4-c]pyrrol-2(1H)-yl)prop-2-en-1-one] has an IC50 [1] of 92 nM and an IC50 [2] of 9 nM.
For C=CC(=O)N1C[C@@H]2CN(c3nc(Nc4cnn(C)c4)c4ncn(C)c4n3)C[C@@H]2C1 [Example 34, 1-((cis)-5-(9-methyl-6-((1-methyl-1H-pyrazol-4-yl)amino)-9H-purin-2-yl)hexahydropyrrolo[3,4-c]pyrrol-2(1H)-yl)prop-2-en-1-one], the IC50 [1] was 2670 nM and the IC50 [2] was 161 nM.
